Assay results reported in patent US20090288227A1, “Improvements in or Relating to Starch Storage in Plants” (University of Durham, priority 2006, published 2009).
Marks after values point to notes of the source that are not given here.

What was measured:
Assay type in all cases: in vivo, Arabidopsis thaliana
tnp seedlings = test: Penetrance of the tnp phenotype in seedlings germinated and grown on medium containing the compound; details: for effect on penetrance of the tnp phenotype: tnp seed germinated and grown in presence of the compound, result in words
Procedure: In order to establish whether the incomplete penetrance was due to methylation-dependent gene silencing, individual T3 sibling lines were germinated in the presence of 100 μM 5-azacytidine, a methylation inhibitor (Jones and Taylor, 1980 Cell 20, 85-93). […]
The tnp mutant phenotype is similar to that of the pkl mutant, which is characterised by the development of swollen and greenish roots that accumulate triacylglycerols and protein bodies (Ogas et al, 1997 Science 277, 91-94; Ogas et al, 1999 Proc. Natl. Acad. Sci. USA 96, 13839-13844). The penetrance of the pkl mutant phenotype is also variable and is affected by gibberellic acid and the gibberellin biosynthesis inhibitor, uniconazole-P. In order to determine whether growth factors have an effect on the penetrance of the tnp phenotype, the tnp seed was germinated and grown in the presence of a number of compounds (see Table 2).
Given the large quantities of starch stored in tnp, the effect of sugars on penetrance was examined. […] Furthermore, the effect of 1% glucose or fructose was not as potent as the effect obtained from sucrose alone. […] The effect of sugars on the penetrance of tnp was not due to an osmotic effect, since mannitol was ineffective at inducing penetrance in the absence of sugar (data not shown).

LEC2 transcripts = test: Semi-quantitative RT-PCR of LEC2 transcript in treated tnp seedlings; details: tnp seedlings at 1-2 days post-germination
Source text: (§1) Alternatively, it is possible that these compounds may act by changing the expression of other key embryonic regulators to alter penetrance. FUS3 and LEC2 play key roles in embryogenesis and the transition to germination (Luerben et al, 1998 Plant J. 15, 755-764; Stone et al, 2001 Proc. Natl. Acad. Sci. USA 98, 11806-11811; Kroj et al, 2003 Development 130, 6065-6073). Semi-quantitative RT-PCR was used to determine whether the transcript levels in these genes were affected in tnp seedlings at 1-2 days post-germination in response to treatment with these compounds (see FIG. 10b).

FUS3 transcript = test: Semi-quantitative RT-PCR of FUS3 transcript in treated tnp seedlings; details: tnp seedlings at 1-2 days post-germination
Source text: as §1

LEC1 transcript = test: Semi-quantitative RT-PCR of LEC1 transcript in treated germinating seedlings; details: tnp and pls control seedlings, RNA at 1-2 days post-germination
Procedure: To investigate the mechanism by which these compounds work, germinating seedlings were treated with each of the compounds, as well as with gibberellic acid (which has no effect on penetrance), and RNA was extracted at 1-2 days post-germination. […] Therefore, the effect of these compounds on penetrance is not mediated by alterations in LEC1 transcript levels, although post-transcriptional or translational effects cannot be excluded.

[1] = Table 2 second series (1/2MS10 control 47.8), 10 nM
[2] = Table 2 second series (1/2MS10 control 47.8), 100 nM
[3] = Table 2 second series (1/2MS10 control 47.8), 1 μM
[4] = Table 2 first series (1/2 MS10 control 32.8), 10 uM
[5] = Table 2 first series (1/2 MS10 control 32.8), 10 nM

Question: How did the “% tnp” value (tnp seedlings; Table 2 first series (1/2 MS10 control 32.8), 100 nM) turn out when `c1ccc(CNc2ncnc3nc[nH]c23)cc1` [BA, N(6)-benzyladenine] was run?
Answer: Its value is 9.9%.

Question: And the “% tnp” value (tnp seedlings; [1])?
Answer: The value was 55%.

Question: And the “% tnp” value (tnp seedlings; [2])?
Answer: Its value is 35.6%.

Question: What about the “% tnp” value (tnp seedlings; [3]) of the same molecule?
Answer: Its value is 5%.

Question: And the “effect on penetrance of the tnp phenotype” value (“effect on penetrance” for short) (tnp seedlings)?
Answer: Its value is “markedly suppressed”.

Question: What about the “levels of LEC2 transcripts” value (LEC2 transcripts) of the same molecule?
Answer: The value was “significantly reduce”.

Question: And the FUS3 transcript levels (FUS3 transcript)?
Answer: The FUS3 transcript levels was “reduction”.

Question: Which “effect on tnp penetrance compared with sucrose alone” value (tnp seedlings; 1% sugar, data not shown) does the source give for `O=C(CO)[C@@H](O)[C@H](O)[C@H](O)CO` [fructose] here?
Answer: The value was “not as potent”.

Question: With `CC(C)(C)[C@@H](O)[C@@H](Cc1ccc(Cl)cc1)n1cncn1` (racemic) [Paclobutrazol, paclobutrazol] as the molecule, how does the “% tnp” value (tnp seedlings; [1]) read?
Answer: Its value is 84.7%.

Question: And the “% tnp” value (tnp seedlings; [2])?
Answer: Its value is 72.3* %.

Question: What about the “effect on penetrance” value (tnp seedlings) of the same molecule?
Answer: Its value is “increased”.

Question: What about the LEC1 transcript levels (LEC1 transcript) of the same molecule?
Answer: Its LEC1 transcript levels is “unaltered”.

Question: And the “levels of LEC2 transcripts” value (LEC2 transcripts)?
Answer: Its value is “no effect”.

Question: What about the FUS3 transcript levels (FUS3 transcript) of the same molecule?
Answer: Its FUS3 transcript levels is “did not have a significant effect”.

Question: Which “% tnp” value (tnp seedlings; [4]) does the source give for `O=C(O)c1ccccc1C(=O)Nc1cccc2ccccc12` [NPA, 1-N-naphthylphthalamic acid] here?
Answer: The value was 55.4%.

Question: And the “effect on penetrance” value (tnp seedlings)?
Answer: The value was “positive effect”.

Question: How did the “effect on penetrance” value (tnp seedlings) turn out when `CC1=CC(=O)CC(C)(C)[C@@]1(O)/C=C/C(C)=C\C(=O)O` [ABA, abscisic acid] was run?
Answer: Its value is “not found to have an effect”.

Question: How did the “% tnp” value (tnp seedlings; Table 2 first series (1/2 MS10 control 32.8), 100 pM) turn out when `NC1(C(=O)O)CC1` [ACC, 1-aminocyclopropane-1-carboxylate] was run?
Answer: Its value is 29.3%.

Question: What about the “effect on penetrance” value (tnp seedlings) of the same molecule?
Answer: The value was “little effect”.

Question: With `OC[C@@H](O)[C@@H](O)[C@H](O)[C@H](O)CO` [mannitol] as the molecule, how does the “inducing tnp penetrance in the absence of sugar” value (tnp seedlings; osmotic control, data not shown) read?
Answer: The value was “ineffective”.

Question: How did the “effect on the positive effect of paclobutrazol on tnp penetrance” value (tnp seedlings; 10 nM paclobutrazol and 10 μM gibberellic acid together, data not shown) turn out when `C=C1C[C@]23C[C@@]1(O)CC[C@H]2[C@@]12C=C[C@H](O)[C@@](C)(C(=O)O1)[C@H]2[C@@H]3C(=O)O` [GA, gibberellic acid] was run?
Answer: Its value is “partially suppressed”.

Question: What about the “% tnp” value (tnp seedlings; [4]) of the same molecule?
Answer: The value was 37.3%.

Question: And the “% tnp” value (tnp seedlings; [1])?
Answer: Its value is 42.1%.

Question: What about the “% tnp” value (tnp seedlings; [2]) of the same molecule?
Answer: The value was 52%.

Question: And the “% tnp” value (tnp seedlings; [3])?
Answer: Its value is 58.4%.

Question: What about the “% tnp” value (tnp seedlings; Table 2 second series (1/2MS10 control 47.8), 10 μM) of the same molecule?
Answer: Its value is 45.4%.

Question: What about the “effect on penetrance” value (tnp seedlings) of the same molecule?
Answer: The value was “weakly positive effect”.

Question: What about the LEC1 transcript levels (LEC1 transcript) of the same molecule?
Answer: The LEC1 transcript levels was “unaltered”.

Question: And the “levels of LEC2 transcripts” value (LEC2 transcripts)?
Answer: The value was “significantly reduce”.

Question: What about the FUS3 transcript levels (FUS3 transcript) of the same molecule?
Answer: The FUS3 transcript levels was “did not have a significant effect”.

Question: With `O=C(O)Cc1cccc2ccccc12` [NAA, naphthaleneacetic acid] as the molecule, how does the “% tnp” value (tnp seedlings; [5]) read?
Answer: The value was 42.8%.

Question: How did the “% tnp” value (tnp seedlings; Table 2 first series (1/2 MS10 control 32.8), 50 nM) turn out when `O=C(O)Cc1c[nH]c2ccccc12` [IAA, indole-3-acetic acid] was run?
Answer: The value was 69.1%.

Question: What about the “effect on penetrance” value (tnp seedlings) of the same molecule?
Answer: The value was “positive effect”.

Question: With `Nc1ncn([C@@H]2O[C@H](CO)[C@@H](O)[C@H]2O)c(=O)n1` [5-AZA-C, 5-azacytidine] as the molecule, how does the “% tnp” value (tnp seedlings; T3 Line 1, 100 μm 5-AZA-C, 1/2MS10 control 28) read?
Answer: The value was 62%.

Question: And the “% tnp” value (tnp seedlings; T3 Line 7, 100 μM 5-AZA-C, 1/2MS10 control 0)?
Answer: Its value is 7.4%.

Question: What about the “% tnp” value (tnp seedlings; T3 Line 21, 100 μM 5-AZA-C, 1/2MS10 control 41) of the same molecule?
Answer: The value was 48%.

Question: What about the “penetrance of the tnp phenotype compared with control levels” value (tnp seedlings; T3 sibling lines germinated in presence of 100 μM, highly variable between lines) of the same molecule?
Answer: Its value is “increase in the penetrance”.

Question: Which results are given for `OC[C@H]1O[C@@](CO)(O[C@H]2O[C@H](CO)[C@@H](O)[C@H](O)[C@H]2O)[C@@H](O)[C@@H]1O` [suc., sucrose]?
Answer: % tnp (tnp seedlings; 1% suc. in medium): 60.5%; % tnp (tnp seedlings; 2% suc. in medium): 65.4%; % tnp (tnp seedlings; 3% suc. in medium): 58.4%; % tnp (tnp seedlings; 4% suc. in medium): 52.4%; % tnp (tnp seedlings; 5% suc. in medium): 54.1%; % tnp (tnp seedlings; 6% suc. in medium): 42.8%; level of tnp penetrance over sucrose concentrations (tnp seedlings; concentration of 2% sucrose): highest level of penetrance

Question: `O=C(O)COc1cccc2ccccc12` [NOA, naphthoxyacetic acid] was tested. Which “% tnp” value (tnp seedlings; [4]) did it give?
Answer: Its value is 58.8%.

Question: What about the “effect on penetrance” value (tnp seedlings) of the same molecule?
Answer: The value was “positive effect”.

Question: For `O=C(O)COc1ccc(Cl)cc1Cl` [2,4-D, 2,4-dichlorophenoxyacetic acid], which “% tnp” value (tnp seedlings; 0% suc. + 10 nm 2,4-D) is on record?
Answer: The value was 2%.

Question: What about the “% tnp” value (tnp seedlings; 1% suc. + 10 nm 2,4-D) of the same molecule?
Answer: The value was 85.1%.

Question: And the “% tnp” value (tnp seedlings; 2% suc. + 10 nm 2,4-D)?
Answer: Its value is 92.3%.

Question: And the “% tnp” value (tnp seedlings; 3% suc. + 10 nm 2,4-D)?
Answer: The value was 84.1%.

Question: And the “% tnp” value (tnp seedlings; 4% suc. + 10 nm 2,4-D)?
Answer: The value was 68.9%.

Question: And the “% tnp” value (tnp seedlings; 5% suc. + 10 nm 2,4-D)?
Answer: Its value is 82.4%.

Question: And the “% tnp” value (tnp seedlings; 6% suc. + 10 nm 2,4-D)?
Answer: The value was 66.0%.

Question: What about the “% tnp” value (tnp seedlings; [5]) of the same molecule?
Answer: The value was 78.1%.

Question: And the “% tnp” value (tnp seedlings; [1])?
Answer: Its value is 82.1%.

Question: And the “% tnp” value (tnp seedlings; [2])?
Answer: Its value is 95.3%.

Question: What about the “% tnp” value (tnp seedlings; [3]) of the same molecule?
Answer: Its value is 98.2%.

Question: What about the “tnp penetrance compared with sucrose alone” value (tnp seedlings; addition of 10 nM 2,4-D to the medium, even in absence of sucrose) of the same molecule?
Answer: Its value is “greater penetrance”.

Question: And the “penetrance of the tnp phenotype” value (tnp seedlings; concentration of 1 μM)?
Answer: Its value is about 100%.

Question: And the penetrance of tnp (tnp seedlings; medium containing 20% sucrose and 25 nM 2,4-D, no effect on growth)?
Answer: The penetrance of tnp was “highest penetrance”.

Question: What about the “effect on penetrance” value (tnp seedlings) of the same molecule?
Answer: Its value is “positive effect”.

Question: What about the “levels of LEC2 transcripts” value (LEC2 transcripts) of the same molecule?
Answer: Its value is “significantly reduce”.

Question: What about the FUS3 transcript levels (FUS3 transcript) of the same molecule?
Answer: The FUS3 transcript levels was “increase”.
